In publication PMC4169885 (Biochemical pharmacology, 2014):
One block for each compound: values may come before it.

Experiments:
CYP2J2 [1] = conditions: projected; ref [14]; cited from earlier work
[2] = Plasma concentration-time profile of RTV and metabolites; format: in vivo; conditions: human, 400 mg bid
CYP2D6 = CYP2D6 (Homo sapiens, UniProt P10635); conditions: CYP2D6, R2 formation; ref [6], [34]; cited from earlier work
CYP3A4 = conditions: ref [27] [11]; cited from earlier work
CYP2J2 [3] = target: T1, CYP2J2 (Homo sapiens, UniProt P51589); conditions: CYP2J2, linear scaled according to kinact/KI (SCHH approach)
T1 sequence (P51589 1-502): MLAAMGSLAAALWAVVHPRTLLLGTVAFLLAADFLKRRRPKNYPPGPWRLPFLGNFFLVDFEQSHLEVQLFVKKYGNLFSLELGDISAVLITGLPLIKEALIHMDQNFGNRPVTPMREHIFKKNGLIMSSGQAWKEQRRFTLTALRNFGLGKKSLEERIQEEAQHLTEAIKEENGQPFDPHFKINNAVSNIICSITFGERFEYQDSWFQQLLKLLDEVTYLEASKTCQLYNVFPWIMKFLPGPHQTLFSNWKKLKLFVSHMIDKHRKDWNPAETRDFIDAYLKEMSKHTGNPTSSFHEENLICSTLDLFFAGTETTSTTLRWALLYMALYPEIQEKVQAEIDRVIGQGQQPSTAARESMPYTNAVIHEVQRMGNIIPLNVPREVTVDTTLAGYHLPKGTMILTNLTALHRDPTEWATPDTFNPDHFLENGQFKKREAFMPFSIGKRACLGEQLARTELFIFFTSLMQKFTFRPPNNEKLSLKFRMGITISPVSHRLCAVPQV

CYP2J2 [4] = target: T1, CYP2J2; assay: in vitro; conditions: recombinant enzyme

Chain of CYP2D6 (P10635 whole entry): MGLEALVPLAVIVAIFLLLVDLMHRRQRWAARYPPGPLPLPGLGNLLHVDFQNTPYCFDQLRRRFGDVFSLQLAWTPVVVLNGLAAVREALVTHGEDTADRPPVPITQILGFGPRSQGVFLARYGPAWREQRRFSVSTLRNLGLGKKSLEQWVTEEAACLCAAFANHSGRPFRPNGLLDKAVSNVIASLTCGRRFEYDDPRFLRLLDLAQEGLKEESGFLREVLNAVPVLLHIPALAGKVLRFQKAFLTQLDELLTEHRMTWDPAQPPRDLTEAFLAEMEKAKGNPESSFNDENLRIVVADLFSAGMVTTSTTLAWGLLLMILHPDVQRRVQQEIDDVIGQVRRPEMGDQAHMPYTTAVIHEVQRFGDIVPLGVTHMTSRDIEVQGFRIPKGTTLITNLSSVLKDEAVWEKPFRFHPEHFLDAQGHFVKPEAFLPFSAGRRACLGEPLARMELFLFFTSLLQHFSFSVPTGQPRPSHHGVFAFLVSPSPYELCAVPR

Structure (SMILES): CC(C)(C)c1ccc(C(=O)CCCN2CCC(OC(c3ccccc3)c3ccccc3)CC2)cc1 [ebastine]
contribution of CYP2J2 to intestinal ebastine hydroxylation (CYP2J2 [1]): ≤ 70%

Cmax [2]: 4.8 µM
slope at 1 μM (CYP2J2 [3]): 0.0044 ^4 μM min^-1
Structure (SMILES): CC(C)c1nc(CN(C)C(=O)N[C@H](C(=O)N[C@@H](Cc2ccccc2)C[C@H](O)[C@H](Cc2ccccc2)NC(=O)OCc2cncs2)C(C)C)cs1 [RTV, Ritonavir]
Km (CYP2D6): 1.6 µM
slope at 1 μM (CYP3A4): 0.17 ^2 μM min^-1

inhibition at 5 min (CYP2J2 [4]): 95%
Structure (SMILES): C#C[C@]1(O)CC[C@H]2[C@@H]3CCC4=Cc5oncc5C[C@]4(C)[C@H]3CC[C@@]21C [danazol]
